Measurements taken from patent publication US7557215B2, “Anthraquinone compounds as anti cancer compounds” (Somanta Limited, priority 2003, dated 2009).
Read-outs that look alike come from different tables or passages of the source.

What was measured:
2780AD = assay: Inhibition of cell growth, adriamycin (doxorubicin) resistant 2780AD cell line; format: cell-based, human; details: for IC50: read-out: Inhibition of cell growth 2780AD nM (IC50); for RF 2780AD (IC50 in resistant cell line/IC50 in parent cell line): 2780AD vs A2780
A2780/cp70 = assay: Inhibition of cell growth, cisplatin resistant A2780/cp70 cell line; format: cell-based, human; details: for RF A2780/cp70 (IC50 in resistant cell line/IC50 in parent cell line): A2780/cp70 vs A2780
A2780 = assay: Inhibition of cell growth, A2780 wild type ovarian carcinoma cell line
[1] = Homo sapiens, A2780/CP70, read-out: Inhibition of cell growth A2780/cp70 nM (IC50)
[2] = Homo sapiens, A2780, read-out: Inhibition of cell growth A2780 nM (IC50)
[3] = A2780/cp70 cisplatin resistant, read-out: Inhibition of cell growth A2780/cp70 nM (IC50)
[4] = read-out: Inhibition of cell growth (IC50, nM) A2780, A2780, Table 1
[5] = read-out: Growth Inhibition (IC50) A2780, A2780, Table 4

## O=C1c2c(O)ccc(O)c2C(=O)c2c(NCCN3CCCC(CCl)C3)ccc(NCCN3CCCC(CCl)C3)c21 (stereo not shown) [CAQ74, 1,4-Bis-{[2-(3-chloromethylpiperidin-1-yl)ethyl]amino}-5,8-dihydroxyanthracene-9,10-dione]
2780AD; Homo sapiens, 2780AD
  IC50: > 1000 nM
A2780/cp70; [1]
  IC50: > 1000 nM
A2780; [2]
  IC50: > 1000 nM

## CN(C)CCNc1ccc(NCCN2CCCC(Cl)C2)c2c1C(=O)c1c(O)ccc(O)c1C2=O (stereo not shown) [CAQ166M, 1-{[2-(3-Chloropiperidin-1-yl)ethyl]amino}-4-{[(2-dimethylamino)ethyl]amino}-5,8-dihydroxyanthracene-9,10-dione]
2780AD; 2780AD adriamycin resistant
  IC50: 75 nM
2780AD
  RF 2780AD (IC50 in resistant cell line/IC50 in parent cell line): 8.3
A2780/cp70; [3]
  IC50: 63 nM
A2780/cp70
  RF A2780/cp70 (IC50 in resistant cell line/IC50 in parent cell line): 7

## CN(C)CCNc1ccc(NCCN2CCC(Cl)CC2)c2c1C(=O)c1c(O)ccc(O)c1C2=O [CAQ172, 1-{[2-(4-Chloropiperidin-1-yl)ethyl]amino}-4-{[(2-dimethylamino)ethyl]amino}-5,8-dihydroxyanthracene-9,10-dione]
2780AD; 2780AD adriamycin resistant
  IC50: 426 nM
2780AD
  RF 2780AD (IC50 in resistant cell line/IC50 in parent cell line): 0.7
A2780/cp70; [3]
  IC50: 535 nM
A2780/cp70
  RF A2780/cp70 (IC50 in resistant cell line/IC50 in parent cell line): 0.9

## CN(C)CCNc1ccc(NCCN2CCCC2CCl)c2c1C(=O)c1c(O)ccc(O)c1C2=O (stereo not shown) [CAQ176M, 1-{[2-(2-Chloromethylpyrrolidin-1-yl)ethyl]-amino}-4-{[(2-Dimethylamino)ethyl]amino}-5,8-dihydroxyanthracene-9,10-dione]
2780AD; 2780AD adriamycin resistant
  IC50: 292 nM
2780AD
  RF 2780AD (IC50 in resistant cell line/IC50 in parent cell line): 10.1
A2780/cp70; [3]
  IC50: 79 nM
A2780/cp70
  RF A2780/cp70 (IC50 in resistant cell line/IC50 in parent cell line): 2.7

## O=C1c2c(O)ccc(O)c2C(=O)c2c(NCCN3CCCC3CCl)ccc(NCCN3CCCC3CCl)c21 (stereo not shown) [CAQ177M, 1,4-Bis-{[2-(2-chloromethylpyrrolidin-1-yl)ethyl]amino}-5,8-dihydroxyanthracene-9,10-dione]
2780AD
  RF 2780AD (IC50 in resistant cell line/IC50 in parent cell line): 1.8
2780AD; Homo sapiens, 2780AD
  IC50: 782 nM
A2780/cp70
  RF A2780/cp70 (IC50 in resistant cell line/IC50 in parent cell line): 1
A2780/cp70; [1]
  IC50: 442 nM
A2780; [2]
  IC50: 428 nM

## CN(C)CCNc1ccc(NCCN2CCCCC2CCl)c2c1C(=O)c1c(O)ccc(O)c1C2=O (stereo not shown) [CAQ183M, 1-{[2-(2-Chloromethylpiperidin-1-yl)ethyl]-amino}-4-{[(2-dimethylamino)ethyl]amino}-5,8-dihydroxyanthracene-9,10-dione]
2780AD; 2780AD adriamycin resistant
  IC50: 91 nM
2780AD
  RF 2780AD (IC50 in resistant cell line/IC50 in parent cell line): 2.3
A2780/cp70; [3]
  IC50: 69 nM
A2780/cp70
  RF A2780/cp70 (IC50 in resistant cell line/IC50 in parent cell line): 1.7

## CN(C)CCNc1ccc(NCCN2C(CCl)CCCC2CCl)c2c1C(=O)c1c(O)ccc(O)c1C2=O (stereo not shown) [CAQ187M, 1-{[2-(2,6-Dichloromethylpiperidin-1-yl)ethyl]-amino}-4-{[(2-dimethylamino)ethyl]amino}-5,8-dihydroxyanthracene-9,10-dione]
2780AD; 2780AD adriamycin resistant
  IC50: 106 nM
2780AD
  RF 2780AD (IC50 in resistant cell line/IC50 in parent cell line): 4.4
A2780/cp70; [3]
  IC50: 357 nM
A2780/cp70
  RF A2780/cp70 (IC50 in resistant cell line/IC50 in parent cell line): 14.9

## CN(C)CCNc1ccc(NCCN2CCC(Cl)C2)c2c1C(=O)c1c(O)ccc(O)c1C2=O (stereo not shown) [CAQ188M, 1-{[2-(3-Chloropyrrolidin-1-yl)ethyl]amino}-4-{[(2-dimethylamino)ethyl]amino}-5,8-dihydroxyanthracene-9,10-dione]
2780AD; 2780AD adriamycin resistant
  IC50: 342 nM
2780AD
  RF 2780AD (IC50 in resistant cell line/IC50 in parent cell line): 5.0
A2780/cp70; [3]
  IC50: 96 nM
A2780/cp70
  RF A2780/cp70 (IC50 in resistant cell line/IC50 in parent cell line): 1.4

## O=C1c2c(O)ccc(O)c2C(=O)c2c(NCCN3CCCCC3CCl)ccc(NCCN3CCCCC3CCl)c21 (stereo not shown) [CAQ190M, 1,4-Bis-{[2-(2-chloromethylpiperidin-1-yl)ethyl]amino}-5,8-dihydroxyanthracene-9,10-dione]
2780AD; Homo sapiens, 2780AD
  IC50: > 1000 nM
A2780/cp70; [1]
  IC50: > 1000 nM
A2780; [2]
  IC50: 178 nM

## O=C1c2ccccc2C(=O)c2c(NCCN3CCCC(CO)C3)ccc(NCCN3CCCC(CO)C3)c21 (stereo not shown) [HAQ38, 1,4-Bis-{[2-(3-hydroxymethylpiperidine-1-yl)ethyl]amino}-anthracene-9,10-dione]
other
  melting point: 112 to 114 °C

## O=C1c2c(O)ccc(O)c2C(=O)c2c(NCCN3CCCC(CO)C3)ccc(NCCN3CCCC(CO)C3)c21 (stereo not shown) [HAQ70, 1,4-Bis-{[2-(3-hydroxymethylpiperidine-1-yl)ethyl]amino}-5,8-dihydroxyanthracene-9,10-dione]
other
  melting point: 180 to 183 °C

## CN(C)CCNc1ccc(NCCN2CCCC(O)C2)c2c1C(=O)c1c(O)ccc(O)c1C2=O (stereo not shown) [HAQ73, 1-[(2-Dimethylamino)ethylamino]-4-[2-(3-hydroxypiperidon-1-yl)ethylamino]-5,8-dihydroxy-anthracene-9,10-dione]
A2780; [4]
  IC50: 10.8 nM

## O=C1c2c(O)ccc(O)c2C(=O)c2c(NCCN3CCCCC3CO)ccc(NCCN3CCCCC3CO)c21 (stereo not shown) [HAQ105, 1,4-Bis-{[2-(2-hydroxymethylpiperidine-1-yl)ethyl]amino}-5,8-dihydroxy-anthracene-9,10-dione]
other
  melting point: 208 to 210 °C

## CN(C)CCNc1ccc(NCCN2CCCC2CO)c2c1C(=O)c1c(O)ccc(O)c1C2=O (stereo not shown) [HAQ110, 1-{[(2-Dimethylamino)ethyl]amino}-4-{[2-(2-hydroxymethylpyrrolidin-1-yl)ethyl]-amino}-5,8-dihydroxy-anthracene-9,10-dione]
A2780; [5]
  IC50: 69 nM

## CN(C)CCNc1ccc(NCCN2CCC(O)CC2)c2c1C(=O)c1c(O)ccc(O)c1C2=O [HAQ111, 1-{[(2-Dimethylamino)ethyl]amino}-4-{[2-(4-hydroxypiperidin-1-yl)ethyl]amino}-5,8-dihydroxy-anthracene-9,10-dione]
A2780; [4]
  IC50: 6.1 nM

## O=C1c2c(O)ccc(O)c2C(=O)c2c(NCCN3CCC(O)C3)ccc(NCCN3CCC(O)C3)c21 (stereo not shown) [HAQ115, 1,4-Bis-{[2-(3-hydroxypyrrolidin-1-yl)ethyl]amino}-5,8-dihydroxy-anthracene-9,10-dione]
other
  melting point: 197 to 199 °C

## O=C1c2c(O)ccc(O)c2C(=O)c2c(NCCN3CCC(O)CC3)ccc(NCCN3CCC(O)CC3)c21 [HAQ116, 1,4-Bis-{[2-(4-hydroxypiperidin-1-yl)ethyl]amino}-5,8-dihydroxy-anthracene-9,10-dione]
other
  melting point: 241 to 244 °C

## O=C1c2c(O)ccc(O)c2C(=O)c2c(NCCN3CCCC3CO)ccc(NCCN3CCCC3CO)c21 (stereo not shown) [HAQ125, 1,4-Bis-{[2-(2-hydroxymethylpyrrolidin-1-yl)ethyl]amino}-5,8-dihydroxy-anthracene-9,10-dione]
other
  melting point: 202 to 204 °C

## C[N+](C)([O-])CCNc1ccc(NCC[N+]2([O-])CCCC2CO)c2c1C(=O)c1c(O)ccc(O)c1C2=O (stereo not shown) [HAQ132N, 1-{[2-(2-Hydroxymethylpyrrolidin-1-yl-N-oxide)ethyl]amino}-4-{[(2-dimethylamino-N-oxide)ethyl]amino}-5,8-dihydroxy-anthracene-9,10-dione]
A2780; [5]
  IC50: > 100000 nM
A2780; read-out: IC50 of di-N-oxides (order of cytotoxicity), text b286
  IC50: > 100000 nM
A2780; text b286
  cytotoxicity ratio (CR=IC50 of alkylaminoanthraquinone-di-N-oxide/IC50 alkylaminoanthraquinone): 1,450

## O=C1c2c(O)ccc(O)c2C(=O)c2c(NCCN3CCCCC3)ccc(NCCN3CCCCC3)c21 [HAQ145, 1,4-Bis-{[2-(piperidin-1-yl)ethyl]amino}-5,8-dihydroxy-anthracene-9,10-dione]
other
  melting point: 219 to 221 °C

## CN(C)CCNc1ccc(NCCN2CCCCC2)c2c1C(=O)c1c(O)ccc(O)c1C2=O [HAQ148, 1-{[(2-Dimethylamino)ethyl]amino}-4-{[2-(piperidin-1-yl)ethyl]amino}-5,8-dihydroxyanthracene-9,10-dione, reference compound]
2780AD; 2780AD adriamycin resistant
  IC50: > 1000 nM
A2780/cp70; [3]
  IC50: > 1000 nM
A2780; [4]
  IC50: > 1000 nM
A2780; read-out: Inhibition of cell growth A2780 nM (IC50), A2780 wild type, Table 2
  IC50: > 1000 nM
